Test system: Genes belonging to other category
Assay: DNA chip mRNA expression in yeast, genes belonging to other category (Table 9)
Type: cell-based, Saccharomyces cerevisiae S288C
Method in brief: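 Untreated cultures served as reference for log-phase S288C yeast given a growth-inhibiting, non-lethal toxicant dose for 2 h at 25° C. in YPD. Gene expression was measured on a whole-genome DNA chip from Cy3/Cy5-labeled cDNA.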

Measured: The level of expressed mRNA in the presence of chemical substance/The level of expressed mRNA in the absence of chemical substance

S=C([S-])NCCNC(=S)[S-].[Zn+2] [(11), zinc N,N′-ethylenebis(dithiocarbamate)]
1.2: yeast gene YBL101W-A | yeast gene YBL102W | yeast gene YBR290W | yeast gene YCR039C | yeast gene YCR062W | yeast gene YCR067C | yeast gene YCR106W | yeast gene YDR080W | yeast gene YDR115W | yeast gene YDR259C | yeast gene YDR304C | yeast gene YDR382W | yeast gene YDR407C | yeast gene YDR427W | yeast gene YDR481C | yeast gene YER025W | yeast gene YER039C | yeast gene YFL022C | yeast gene YFR006W | yeast gene YGR257C | yeast gene YIL018W | yeast gene YIL123W | yeast gene YJL113W | yeast gene YJL138C | yeast gene YJL141C | yeast gene YJR058C | yeast gene YKL041W | yeast gene YLR118C | yeast gene YLR120C | yeast gene YLR136C | yeast gene YMR092C | yeast gene YMR238W | yeast gene YMR255W | yeast gene YNL147W | yeast gene YNR030W | yeast gene YOR117W | yeast gene YOR124C | yeast gene YOR185C | yeast gene YOR355W | yeast gene YPL149W
4.1: yeast gene YLR251W
1.5: yeast gene YBL043W | yeast gene YGR189C | yeast gene YKL008C | yeast gene YLR362W | yeast gene YMR219W | yeast gene YNR035C
4.6: yeast gene YBL078C
3.5: yeast gene YHR139C | yeast gene YKL096W
2.4: yeast gene YGR253C
1.4: yeast gene YCR096C | yeast gene YDL061C | yeast gene YDR276C | yeast gene YER009W | yeast gene YFR050C | yeast gene YGR239C | yeast gene YHR195W | yeast gene YKL139W | yeast gene YKL198C | yeast gene YLR250W | yeast gene YLR340W | yeast gene YLR391W | yeast gene YML055W | yeast gene YMR226C | yeast gene YNR010W | yeast gene YOL013C | yeast gene YOR058C | yeast gene YOR198C | yeast gene YOR288C | yeast gene YOR383C | yeast gene YPL177C | yeast gene YPR028W
1.0: yeast gene YCR088W | yeast gene YDR104C | yeast gene YDR358W | yeast gene YJR086W | yeast gene YKL039W | yeast gene YLR093C | yeast gene YMR094W | yeast gene YOL164W | yeast gene YOR181W | yeast gene YOR259C
1.8: yeast gene YHR071W | yeast gene YMR314W | yeast gene YPL154C | yeast gene YPR108W
0.6: yeast gene YBR177C | yeast gene YDR432W | yeast gene YGL094C | yeast gene YHR166C | yeast gene YJL089W | yeast gene YNR047W | yeast gene YPL105C
3.7: yeast gene YLR178C
1.9: yeast gene YCR004C | yeast gene YEL066W | yeast gene YER177W | yeast gene YMR276W
1.1: yeast gene YCR071C | yeast gene YDL238C | yeast gene YDR315C | yeast gene YFL043C | yeast gene YGL229C | yeast gene YHR142W | yeast gene YKL013C | yeast gene YKR014C | yeast gene YMR104C | yeast gene YMR275C | yeast gene YNL006W
3.2: yeast gene YBR214W | yeast gene YLR110C
1.6: yeast gene YBL041W | yeast gene YCL067C | yeast gene YDR388W | yeast gene YDR510W | yeast gene YEL042W | yeast gene YGR213C | yeast gene YKL097W-A | yeast gene YNL093W | yeast gene YOL005C | yeast gene YOR157C | yeast gene YOR230W
2.9: yeast gene YJL116C
2.2: yeast gene YDR055W
0.4: yeast gene YDR488C | yeast gene YGL150C | yeast gene YNL039W
0.2: yeast gene YGL158W
3.1: yeast gene YLR356W | yeast gene YPL230W
0.5: yeast gene YJL073W
2.1: yeast gene YOR261C
2.0: yeast gene YNL333W
1.7: yeast gene YDR085C | yeast gene YFL038C | yeast gene YKL193C
1.3: yeast gene YBR128C | yeast gene YCL020W | yeast gene YCR069W | yeast gene YDL143W | yeast gene YDR257C | yeast gene YER078C | yeast gene YFL028C | yeast gene YFR051C | yeast gene YGR136W | yeast gene YGR232W | yeast gene YKL079W | yeast gene YNL007C | yeast gene YNR034W | yeast gene YOR036W | yeast gene YOR132W | yeast gene YOR148C | yeast gene YOR265W
0.3: yeast gene YKL165C
0.7: yeast gene YBR239C | yeast gene YDR084C | yeast gene YER076C | yeast gene YER107C | yeast gene YGL207W | yeast gene YHR185C | yeast gene YJR004C | yeast gene YMR214W | yeast gene YNL135C | yeast gene YNL196C | yeast gene YOR003W
0.1: yeast gene YOR298W
5.0: yeast gene YLR327C
0.8: yeast gene YBL005W-A | yeast gene YBL101C | yeast gene YBR009C | yeast gene YDR181C | yeast gene YDR378C | yeast gene YHR004C | yeast gene YOR312C
0.9: yeast gene YAR010C | yeast gene YBR031W | yeast gene YCL027W | yeast gene YDL008W | yeast gene YDR188W | yeast gene YDR264C | yeast gene YER130C | yeast gene YHR205W | yeast gene YIL140W | yeast gene YJR069C | yeast gene YLR360W | yeast gene YLR429W | yeast gene YMR091C | yeast gene YMR112C | yeast gene YNL083W | yeast gene YOR023C | yeast gene YPL089C | yeast gene YPR066W | yeast gene YPR081C | yeast gene YPR103W | yeast gene YPR155C | yeast gene YPR185W
−0.2: yeast gene YPL109C
2.5: yeast gene YMR004W | yeast gene YNR069C
